Assays:
B cells in human blood = test: Inhibition of B cell activation in whole blood measured by CD69 expression; format: cell-based; conditions: anti-IgM stimulation, 20 hours, CD69-positive cells that are also CD20-positive, read-out: HWB IC50
Procedure: A procedure to test the ability of Btk inhibitors to suppress B cell receptor-mediated activation of B cells in human blood is as follows:
Human whole blood (HWB) is obtained from healthy volunteers, with the following restrictions: 24 hr drug-free, non-smokers. Blood is collected by venipuncture into Vacutainer tubes anticoagulated with sodium heparin. Test compounds are diluted to ten times the desired starting drug concentration in PBS (20×), followed by three-fold serial dilutions in 10% DMSO in PBS to produce a nine point dose-response curve. 5.5 μl of each compound dilution is added in duplicate to a 2 ml 96-well V bottom plate (Analytical Sales and Services, #59623-23); 5.5 μl of 10% DMSO in PBS is added to control and no-stimulus wells. HWB (100 μl) is added to each well, and after mixing the plates are incubated at 37 C, 5% CO2, 100% humidity for 30 minutes. Goat F(ab′)2 anti-human IgM (Southern Biotech, #2022-14) (10 μl of a 500 μg/ml solution, 50 μg/ml final concentration) is added to each well (except the no-stimulus wells) with mixing and the plates are incubated for an additional 20 hours.
At the end of the 20 hour incubation, samples are incubated with florescent-probe-labeled anti-bodies (15 μl PE Mouse anti-Human CD20, BD Pharmingen, #555623, and/or 20 ul APC Mouse anti-Human CD69, BD Pharmingen #555533) for 30 minutes, at 37 C, 5% CO2, 100% humidity. Included are induced control, unstained and single stains for compensation adjustments and initial voltage settings. Samples are then lysed with 1 ml of 1× Pharmingen Lyse Buffer (BD Pharmingen #555899), and plates are centrifuged at 1800 rpm for 5 minutes. Supernatants are removed via suction and the remaining pellets are lysed again with another 1 ml of 1× Pharmingen Lyse Buffer, and plates are spun down as before. Supernatants are aspirated and remaining pellets are washed in FACs buffer (PBS+1% FBS). After a final spin, the supernantants are removed and pellets are resuspended in 180 μl of FACs buffer. Samples are transferred to a 96 well plate suitable to be run on the HTS 96 well system on the BD LSR II flow cytometer.
Using appropriate excitation and emission wavelengths for the fluorophores used, data are acquired and percent positive cell values are obtained using Cell Quest Software. Results are initially analyzed by FACS analysis software (Flow Jo). […] The IC50 values are calculated using XLfit software version 3, equation 201.

Bruton's Tyrosine Kinase = Bruton's Tyrosine Kinase (Homo sapiens, UniProt Q06187); test: Bruton's Tyrosine Kinase (BTK) Inhibition TR-FRET competition assay; format: binding; conditions: inactivated state of BTK; Kinase Tracer 178; 18-24 h at 14° C
Procedure: This BTK competition assay measures compound potency (IC50) for the inactivated state of Bruton's Tyrosine Kinase using FRET (Forster/Fluorescence Resonance Energy Transfer) technology. The BTK-Eu complex was incubated on ice one hour prior to use at a starting concentration of 50 nM BTK-Bioease™: 10 nM Eu-streptavidin (Perkin-Elmer Catalog# AD0062). The assay buffer consisted of 20 mM HEPES (pH 7.15), 0.1 mM DTT, 10 mM MgCl2, 0.5 mg/ml BSA with 3% Kinase Stabilizer (Fremont Biosolutions, Catalog # STB-K02). After 1 h, the reaction mixture from above was diluted 10 fold in assay buffer to make 5 nM BTK: 1 nM Eu-Streptavidin complex (donor fluorophore). […] of a mixture of 0.11 nM BTK-Eu and 0.11 nM Kinase Tracer 178 (Invitrogen, Catalog # PV5593,) with BTK-Eu alone as no negative control, was then dispensed into 384-well flat bottom plates (Greiner, 784076). Compounds to be tested in assay were prepared as 10× concentrations and serial dilution in half-log increments was performed in DMSO so as to generate 10 point curves. To initiate the FRET reaction, compounds prepared as 10× stock in DMSO was added to the plates and the plates were incubated 18-24 h at 14° C.
After the incubation the plates were read on a BMG Pherastar Fluorescent plate reader (or equivalent) and used to measure the emission energy from the europium donor fluorophore (620 nm emission) and the FRET (665 nm emission). The negative control well values were averaged to obtain the mean minimum. The positive “no inhibitor” control wells were averaged to obtain the mean maximum. Percent of maximal FRET was calculated using following equation:
% max FRET=100×[(FSRcmpd−FSRmean min)/(FSRmean max−FSRmean min)]
where FSR=FRET Signal ratio. % Max FRET curves were plotted in Activity Base (Excel) and the IC50(%), hill slope, z′ and % CV were determined. The mean IC50 and standard deviation will be derived from duplicate curves (singlet inhibition curves from two independent dilutions) using Microsoft Excel.

Chain of Bruton's Tyrosine Kinase (Q06187 whole entry): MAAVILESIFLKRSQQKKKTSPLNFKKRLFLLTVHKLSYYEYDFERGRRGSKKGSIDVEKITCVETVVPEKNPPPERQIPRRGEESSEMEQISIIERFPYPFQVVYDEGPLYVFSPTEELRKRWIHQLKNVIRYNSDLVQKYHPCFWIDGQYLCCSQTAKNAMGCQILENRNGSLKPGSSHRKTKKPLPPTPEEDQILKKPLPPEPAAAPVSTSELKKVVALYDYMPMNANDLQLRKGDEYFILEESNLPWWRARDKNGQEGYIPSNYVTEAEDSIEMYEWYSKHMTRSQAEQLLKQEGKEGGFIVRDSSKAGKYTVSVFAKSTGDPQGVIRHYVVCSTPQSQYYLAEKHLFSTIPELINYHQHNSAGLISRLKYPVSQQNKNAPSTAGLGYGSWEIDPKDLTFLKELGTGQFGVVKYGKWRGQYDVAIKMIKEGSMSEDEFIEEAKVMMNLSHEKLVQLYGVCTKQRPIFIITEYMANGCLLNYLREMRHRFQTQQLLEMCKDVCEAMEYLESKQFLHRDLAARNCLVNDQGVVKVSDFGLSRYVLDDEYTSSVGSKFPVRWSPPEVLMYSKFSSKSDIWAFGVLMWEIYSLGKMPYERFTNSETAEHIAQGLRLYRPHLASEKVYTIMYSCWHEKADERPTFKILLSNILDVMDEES

| Structure (SMILES) | IC50 (B cells in human blood) [µM] | IC50 (Bruton's Tyrosine Kinase) [µM] |
| --- | --- | --- |
| CNC(=O)c1cc2c(-c3ccc(CNC(=O)c4ccc(C(C)(C)C)cc4)c(F)c3)ncnc2[nH]1 [Compound I-17, 4-{4-[(4-tert-Butyl-benzoylamino)-methyl]-3-fluoro-phenyl}-7H-pyrrolo[2,3-d]pyrimidine-6-carboxylic acid methylamide] | 16.2 | 0.098 |
| CN(C)CCNC(=O)c1cc2c(-c3ccc(CNC(=O)c4ccc(C(C)(C)C)cc4)c(F)c3)ncnc2[nH]1 [Compound I-19, 4-{4-[(4-tert-Butyl-benzoylamino)-methyl]-3-fluoro-phenyl}-7H-pyrrolo[2,3-d]pyrimidine-6-carboxylic acid (2-dimethylamino-ethyl)-amide] |  | 0.137 |
| Cn1cc(-c2cc3c(N4CCC(CNC(=O)c5ccc(C(C)(C)C)cc5)CC4)ncnc3[nH]2)cn1 [Compound I-20, 4-tert-Butyl-N-{1-[6-(1-methyl-1H-pyrazol-4-yl)-7H-pyrrolo[2,3-d]pyrimidin-4-yl]-piperidin-4-ylmethyl}-benzamide] | 3 | 0.062 |
| Cn1cc(-c2cc3c(-c4ccc(CNC(=O)c5ccc(C(C)(C)C)cc5)cc4)ncnc3[nH]2)cn1 [Compound I-21, 4-tert-Butyl-N-{4-[6-(1-methyl-1H-pyrazol-4-yl)-7H-pyrrolo[2,3-d]pyrimidin-4-yl]-benzyl}-benzamide] | 1.4 | 0.007 |
| Cn1cc(-c2cc3c(-c4ccc(CNC(=O)c5ccc(C6CC6)cc5)cc4)ncnc3[nH]2)cn1 [Compound I-22, 4-Cyclopropyl-N-{4-[6-(1-methyl-1H-pyrazol-4-yl)-7H-pyrrolo[2,3-d]pyrimidin-4-yl]-benzyl}-benzamide] | 5.48 | 0.008 |
| CC(C)c1ccc(C(=O)NCc2ccc(-c3ncnc4[nH]c(-c5cnn(C)c5)cc34)cc2)cc1 [Compound I-23, 4-Isopropyl-N-{4-[6-(1-methyl-1H-pyrazol-4-yl)-7H-pyrrolo[2,3-d]pyrimidin-4-yl]-benzyl}-benzamide] | 1.4 | 0.007 |
| Cn1cc(-c2cc3c(-c4ccc(CNC(=O)c5ccc(C6COC6)cc5)cc4)ncnc3[nH]2)cn1 [Compound I-24, N-{4-[6-(1-Methyl-1H-pyrazol-4-yl)-7H-pyrrolo[2,3-d]pyrimidin-4-yl]-benzyl}-4-oxetan-3-yl-benzamide] |  | 0.065 |
| Cn1cc(-c2cc3c(-c4ccc(CNC(=O)c5ccc(C6(C)COC6)cc5)cc4)ncnc3[nH]2)cn1 [Compound I-25, 4-(3-Methyl-oxetan-3-yl)-N-{4-[6-(1-methyl-1H-pyrazol-4-yl)-7H-pyrrolo[2,3-d]pyrimidin-4-yl]-benzyl}-benzamide] | 28.9 | 0.044 |
| Cn1cc(-c2cc3c(-c4ccc(CNC(=O)c5cc6c(s5)CCCC6)cc4)ncnc3[nH]2)cn1 [Compound I-26, 4,5,6,7-Tetrahydro-benzo[b]thiophene-2-carboxylic acid 4-[6-(1-methyl-1H-pyrazol-4-yl)-7H-pyrrolo[2,3-d]pyrimidin-4-yl]-benzylamide] | 0.608 | 0.001 |
| Cn1cc(-c2cc3c(-c4ccc(CNC(=O)c5ccc(C(C)(C)C)cc5)c(F)c4)ncnc3[nH]2)cn1 [Compound I-27, 4-tert-Butyl-N-{2-fluoro-4-[6-(1-methyl-1H-pyrazol-4-yl)-7H-pyrrolo[2,3-d]pyrimidin-4-yl]-benzyl}-benzamide] | 0.812 | 0.002 |
| Cn1cc(-c2cc3c(-c4ccc(CNC(=O)c5ccc(C(C)(C)C)nc5)c(F)c4)ncnc3[nH]2)cn1 [Compound I-28, 6-tert-Butyl-N-{2-fluoro-4-[6-(1-methyl-1H-pyrazol-4-yl)-7H-pyrrolo[2,3-d]pyrimidin-4-yl]-benzyl}-nicotinamide] | 2.54 | 0.004 |
| Cc1ccc(C(=O)NCc2ccc(-c3ncnc4[nH]c(-c5cnn(C)c5)cc34)cc2F)s1 [Compound I-29, 5-Methyl-thiophene-2-carboxylic acid 2-fluoro-4-[6-(1-methyl-1H-pyrazol-4-yl)-7H-pyrrolo[2,3-d]pyrimidin-4-yl]-benzylamide] | 0.47 | 0.003 |
| CC(C)(C)c1ccc(C(=O)NCc2ccc(-c3ncnc4[nH]c(-c5cnn(CCO)c5)cc34)cc2F)cc1 [Compound I-30, 4-tert-Butyl-N-(2-fluoro-4-{6-[1-(2-hydroxy-ethyl)-1H-pyrazol-4-yl]-7H-pyrrolo[2,3-d]pyrimidin-4-yl}-benzyl)-benzamide] | 1.04 | 0.0007 |
| CN(Cc1ccc(-c2ncnc3[nH]c(-c4cnn(C)c4)cc23)cc1F)C(=O)c1ccc(C(C)(C)C)cc1 [Compound I-31, 4-tert-Butyl-N-{2-fluoro-4-[6-(1-methyl-1H-pyrazol-4-yl)-7H-pyrrolo[2,3-d]pyrimidin-4-yl]-benzyl}-N-methyl-benzamide] | 6.05 | 0.02 |
| Cc1ccc(C(=O)N(C)Cc2ccc(-c3ncnc4[nH]c(-c5cnn(C)c5)cc34)cc2F)s1 [Compound I-32, 5-Methyl-thiophene-2-carboxylic acid {2-fluoro-4-[6-(1-methyl-1H-pyrazol-4-yl)-7H-pyrrolo[2,3-d]pyrimidin-4-yl]-benzyl}-methyl-amide] |  | 0.008 |
| Cn1cc(-c2cc3c(-c4ccc(CN5Cc6cc(C(C)(C)C)sc6C5=O)c(F)c4)ncnc3[nH]2)cn1 [Compound I-33, 2-tert-Butyl-5-{2-fluoro-4-[6-(1-methyl-1H-pyrazol-4-yl)-7H-pyrrolo[2,3-d]pyrimidin-4-yl]-benzyl}-4,5-dihydro-thieno[2,3-c]pyrrol-6-one] | 0.129 | 0.001 |
| Cn1cc(-c2cc3c(-c4ccc(CNC(=O)c5cc(C(C)(C)C)on5)c(F)c4)ncnc3[nH]2)cn1 [Compound I-34, 5-tert-Butyl-isoxazole-3-carboxylic acid 2-fluoro-4-[6-(1-methyl-1H-pyrazol-4-yl)-7H-pyrrolo[2,3-d]pyrimidin-4-yl]-benzylamide] | 0.076 | 0.0002 |
| Cn1cc(-c2cc3c(-c4ccc(CNC(=O)c5cc(C(C)(C)C)on5)c(F)c4)ncnc3[nH]2)cn1 [Compound I-48, 5-tert-Butyl-isoxazole-3-carboxylicacid 2-fluoro-4-[6-(1-methyl-1H-pyrazol-4-yl)-7H-pyrrolo[2,3-d]pyrimidin-4-yl]-benzylamide] |  | 0.00019 |
| Cn1cc(-c2cc3c(-c4ccc(CNC(=O)OC(C)(C)C)c(F)c4)ncnc3[nH]2)cn1 [Compound I-50, {2-Fluoro-4-[6-(1-methyl-1H-pyrazol-4-yl)-7H-pyrrolo[2,3-d]pyrimidin-4-yl]-benzyl}-carbamic acid tert-butyl ester] |  | 1.49 |
| Cn1cc(-c2cc3c(-c4ccc(CNC(=O)c5ccccc5)c(F)c4)ncnc3[nH]2)cn1 [Compound I-51, N-{2-Fluoro-4-[6-(1-methyl-1H-pyrazol-4-yl)-7H-pyrrolo[2,3-d]pyrimidin-4-yl]-benzyl}-benzamide] |  | 0.026 |

— patent publication US20150284394A1, “INHIBITORS OF BRUTON'S TYROSINE KINASE” (HOFFMANN-LA ROCHE INC., priority 2012, published 2015)
